We go through one compound from EP4653007A1, “NOVEL MIXTURE OF ACTIVE INGREDIENTS, COMPOSITIONS CONTAINING THEM, AND THEIR USE AGAINST ALLERGY AND/OR INFLAMMATION” (Global Pharmacies Partner S.R.L. in Forma Abbreviata G.P.P. …, priority 2024, dated 2025).

The test system of one test is RBL-2H3 cells. Briefly: evaluation of degranulation (β-hexosaminidase release) in sensitized/stimulated RBL-2H3 cells. The class given is cell-based, rat. To be noted: positive control 20 µM. The procedure:
To evaluate the efficacy of a mixture M according to the invention, the following in vitro study was conducted. The antiallergic activity of the tested sample of mixture M was evaluated by measuring its ability to prevent degranulation processes in a rat leukemia cell line (RBL-2H3), widely used as a model simulating mast cells in immunological and allergological studies.
(§1) The RBL-2H3 cells were first sensitized and then stimulated to induce degranulation.
The test was conducted on RBL-2H3 cells grown in DMEM (Dulbecco's modified Eagle medium) containing 10% fetal bovine serum (FBS) and 1% antibiotics (penicillin and streptomycin) and incubated in standard culture conditions (37°C, 5% CO2). RBL-2H3 cells are widely used in allergy and immunology research, as, like mast cells, they express FCεRI and, following cross-linking between IgE bound to FCεRI and allergens, they undergo degranulation. […]
The medium was then recovered and separated from the cells and incubated with 4-nitrophenyl-N-acetyl-β-D-glucosamide. The reaction was stopped with carbonate buffer and the absorbance was measured by spectrophotometric reading at 405 nm. Degranulation was calculated as the percentage of β-hexosaminidase relative to non-sensitized (NS) cells as follows: Degranulation (%) = (ODX)/(ODNS)⋅100 [formula] […]

In a further test the test system is TNFα. In words: TNFα dosage by ELISA in supernatant of sensitized/stimulated RBL-2H3 cells. The class given is cell-based, rat. To be noted: positive control 20 µM. The procedure: The anti-inflammatory action was instead evaluated, always in the same cell line, by measuring the ability of the sample to inhibit the release of tumor necrosis factor alpha (TNFα).
as §1
The test was conducted on RBL-2H3 cells grown in DMEM (Dulbecco's modified Eagle medium) containing 10% fetal bovine serum (FBS) and 1% antibiotics (penicillin and streptomycin) and incubated in standard culture conditions (37°C, 5% CO2). RBL-2H3 cells are widely used in allergy and immunology research, as, like mast cells, they express FCεRI and, following cross-linking between IgE bound to FCεRI and allergens, they undergo degranulation. In this way, therefore, they simulate the behavior of mast cells and basophils in their response to an immunological stimulus.
The supernatant recovered from the cells was also used for the dosage of TNFα performed by ELISA (Enzyme-Linked Immunosorbent Assay), a very widespread biochemical technique used for the quantification of proteins and peptides. In an ELISA assay, a specific […] for TNFα is immobilized on a solid surface (the bottom of a well) to which the assay medium is added. Detection is done by means of a biotinylated secondary antibody and then reacted with streptavidin-HRP. The colorimetric reaction is proportional to the amount of TNFα present. The results are read by spectrophotometer at 450 nm. The values obtained were then interpolated into a standard curve of TNFα.
The absorbance (optical density, OD) measured at 450 nm is directly proportional to the amount of TNFα produced by the tissues. To calculate the concentrations of TNFα, the OD values obtained were interpolated into a standard curve of TNFα. The percentages were calculated with respect to the non-sensitized and non-stimulated cells (NS). The values are expressed as means ± standard deviation. Statistical processing of the data was performed by Student's t-test. Values of p<0.05 are considered significant. […]
On the technique in general: In an ELISA, binding on a coated surface is turned into a signal by an enzyme label.

In the case of `C=C1CC[C@H]2C(=C)CC[C@H]3C(=C)C(=O)O[C@@H]3[C@@H]12` [PC, Dehydrocostolactone], the “β-hexosaminidase (% vs NS)” value with RBL-2H3 cells (RBL-2H3, anti-DNP IgE / DNP-HSA) worked out at 244.8%. In the test with RBL-2H3 cells (reduction in degranulation), the “protection (% vs NC)” value turned out to be 80.8%. Also, in the test on TNFα, the “TNFα (% vs NS)” value was 183.4%. Besides, the “TNFα” value in the test on TNFα (RBL-2H3 supernatant) was 200.3 pg/mL. The “protezione (% vs NC)” value in the test on TNFα (reduction in TNFα release) came to 19.5%.
